Columns and labels:
[1] = Methylene blue degradation measured by UV-vis spectrophotometry; details: Example 1: H2O2 at 15 vol. %, TiO2 at various concentrations, no UV irradiation, measured every 3 minutes for one hour
Text: Methylene blue (MB) is a heterocyclic aromatic chemical compound with molecular formula: C16H18N3SCl (AldrichSigmaAldrich, Oslo, Norway). It has many uses in a range of different fields, such as biology and chemistry. […] A degradadation of MB therefore can be used as a model for the in vivo degradation of organic material, such as bacteria, or dead, damaged, and/or infected tissue. At room temperature it appears as a solid, odourless, dark green powder that yields a blue solution when dissolved in water. When degradated in solution, methylene blue becomes colourless. When methylene blue is analysed by UV-vis spectrophotometry (Lambda 25, Perkin Elmer, USA), it absorbs light at […]. This machine was used to quantify the degradation of MB.
The aim was to measure if methylene blue could be degradated by H2O2 (PERDROGEN® 30% H2O2 (w/w), Sigma Aldrich AS, Oslo, Norway) at 15% only, without TiO2 or UV irradiation. Then, an increasing concentration of TiO2 (Aeroxide P25, Evonik AG, Essen, Germany) was added to the solution until a maximum concentration of 8 g/L. The measurements were taken every 3 minutes for one hour. The pH of the suspension containing MB was also registered. The suspension was stirred prior to each measurement to prevent the deposition of the TiO2 particles. […]

[2] = pH of the suspension containing MB; assay type: physicochemical; details: Example 1: H2O2 at 15 vol. %, without or with TiO2
Protocol: The aim was to measure if methylene blue could be degradated by H2O2 (PERDROGEN® 30% H2O2 (w/w), Sigma Aldrich AS, Oslo, Norway) at 15% only, without TiO2 or UV irradiation. Then, an increasing concentration of TiO2 (Aeroxide P25, Evonik AG, Essen, Germany) was added to the solution until a maximum concentration of 8 g/L. The measurements were taken every 3 minutes for one hour. The pH of the suspension containing MB was also registered. The suspension was stirred prior to each measurement to prevent the deposition of the TiO2 particles.
The aim was to measure if methylene blue could be degradated by TiO2 nanoparticles only (Aeroxide P25, Evonik AG, Essen, Germany), without H2O2 or UV irradiation. Then, an increasing concentration of H2O2 (PERDROGEN® 30% H2O2 (w/w), Sigma Aldrich AS, Oslo, Norway) was added to the suspension until a maximum concentration of 15 vol. %. The procedure of the experiment was the same as explained in example 1.

For `OO` [H2O2 at 15 vol. %, H2O2], the Methylene blue degradation [1] was “Almost no degradation” and the “pH of the suspension containing MB” value [2] was 3.7.
